Literature values, collected in US6613768B1, “Treatment of female arousal disorder” (Lilly ICOS LLC, priority 1999, dated 2003).
Structures can show the parent of a compound that is named as a salt.

Test system: postmenopausal women with sexual dysfunction

women with clitoral discomfort/hypersensitivity who withdrew from the study (of the 7 women affected): 3
clitoral discomfort and hypersensitivity, number of women (thirty-three postmenopausal women): 7 woman
Structure (SMILES): CCCc1nn(C)c2c(=O)[nH]c(-c3cc(S(=O)(=O)N4CCN(C)CC4)ccc3OCC)nc12 [sildenafil, Sildenafil citrate]
